IC50 data for 38 compounds are collected here from patent US10100016B2, “Condensed ring derivative, and preparation method, intermediate, pharmaceutical composition and use thereof” (SHANGHAI YINGLI PHARMACEUTICAL CO., LTD., priority 2015, dated 2018).

Chain of hURAT1 (Q96S37 whole entry): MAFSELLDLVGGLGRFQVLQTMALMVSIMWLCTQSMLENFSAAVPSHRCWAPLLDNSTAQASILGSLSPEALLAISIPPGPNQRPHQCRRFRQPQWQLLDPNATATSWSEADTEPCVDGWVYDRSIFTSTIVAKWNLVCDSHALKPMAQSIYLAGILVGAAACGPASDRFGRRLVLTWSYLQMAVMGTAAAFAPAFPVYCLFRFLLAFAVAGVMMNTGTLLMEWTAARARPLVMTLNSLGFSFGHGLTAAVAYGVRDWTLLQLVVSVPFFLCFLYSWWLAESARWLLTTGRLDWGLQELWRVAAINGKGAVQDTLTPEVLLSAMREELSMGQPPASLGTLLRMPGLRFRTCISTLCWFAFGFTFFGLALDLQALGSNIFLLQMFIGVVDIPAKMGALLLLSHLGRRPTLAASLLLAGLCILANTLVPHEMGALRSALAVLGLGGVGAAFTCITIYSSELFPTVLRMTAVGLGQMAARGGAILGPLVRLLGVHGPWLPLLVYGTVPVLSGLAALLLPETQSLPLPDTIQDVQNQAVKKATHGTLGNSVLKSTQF

This assay addresses hURAT1 (Homo sapiens (Human), UniProt Q96S37). Briefly: 14C-uric acid transport inhibition in transfected HEK293/hURAT1 cells. In kind it is cell-based. The following applies: 14C-uric acid uptake, 10 mins incubation, read-out: IC50 value against hURAT1. The protocol: Human embryonic kidney cells (HEK293) was incubated in DMEM tissue culture medium, at 37° C., under 5% CO2 and 95% air atmosphere. […] Transfected HEK293/hURAT1 cells were used to the test for ^14C-uric acid transport activity.
The uric acid [8-14C] […] The incubating solution was removed after 10 mins incubation, followed by adding 100 μL cold washing buffer, after washing with this buffer for 3 times, the buffer was completely removed from the well.
By IC50 is commonly meant the midpoint of a concentration-inhibition curve. As to `CC(C)(Sc1ccncc1-c1ccc(C#N)c2ccccc12)C(=O)O` [Verinurad (RDEA3170), reference compound], the IC50 amounted to 113 nM.

Take `CC(C)(Sc1ccc2cnnc(-c3ccc(C#N)c4ccccc34)c2c1)C(=O)O` [Compound 50, 2-{[4-(4-Cyanonaphthalen-1-yl)phthalazin-6-yl]thio}-2-methyl propionic Acid]: the IC50 came out at 971 nM.

For the compound `CC(C)(Sc1ccc2cncc(-c3ccc(C#N)c4ccc(F)cc34)c2c1)C(=O)O` [Compound 12, 2-{[4-(4-Cyano-7-fluoronaphthalen-1-yl)isoquinolin-6-yl]thio}-2-methyl propionic Acid], the IC50 came out at 71 nM.

For the compound `CC(C)(Cc1cc2c(-c3ccc(C#N)c4ccccc34)cncc2s1)C(=O)O` [Compound 47, 3-[4-(4-Cyanonaphthalen-1-yl)thieno[2,3-c]pyridin-2-yl]-2,2-dimethyl propionic Acid], the IC50 came out at 18 nM.

As to `CC(C)(Cc1cc2c(-c3ccc(C#N)c4ccccc34)cccc2s1)C(=O)O` [Compound 38, 3-[4-(4-Cyanonaphthalen-1-yl)-1-benzothiophen-2-yl]-2,2-dimethyl propionic Acid], the IC50 stood at 209 nM.

Regarding `N#Cc1ccc(-c2cncc3ccc(C(=O)O)cc23)cc1` [Compound 1, 4-(4-cyanophenyl)isoquinoline-6-carboxylic Acid], the IC50 turned out to be 2530 nM.

Turning to `N#Cc1ccc(-c2cncc3cc(CC(=O)O)sc23)cc1` [Compound 32, 2-[7-(4-Cyanophenyl)thieno[3,2-c]pyridin-2-yl]acetic Acid], the IC50 came to 5400 nM.

On to `CC(Cc1ccc2cncc(-c3ccc(C#N)c4ccccc34)c2c1)C(=O)O` (centres unmarked) [Compound 16, 3-[4-(4-Cyanonaphthalen-1-yl)isoquinolin-6-yl]-2-methyl propionic acid], for which the IC50 was determined as 15 nM.

Turning to `N#Cc1ccc(-c2cncc3ccc(CC(=O)O)cc23)c2ccccc12` [Compound 3, 2-[4-(4-Cyanonaphthalen-1-yl)isoquinolin-6-yl]acetic Acid], the IC50 was 327 nM.

`CC(C)(Sc1ccc2cncc(-c3ccc(C#N)cc3F)c2c1)C(=O)O` [Compound 8, 2{[4-(4-Cyano-2-fluorophenyl)isoquinolin-6-yl]thio}-2-methylpropionic Acid]: the IC50 is 57 nM.

As to `CC(C)(Sc1ccc2cncc(-c3ccc(C#N)c4c3OCCO4)c2c1)C(=O)O` [Compound 11, 2-{[4-(8-Cyano-2,3-dihydro-1,4-benzodioxan-5-yl)isoquinolin-6-yl]thio}-2-methylpropionic Acid], the IC50 came out at 62 nM.

For `CC(CC(=O)O)c1ccc2cncc(-c3ccc(C#N)c4ccccc34)c2c1` (centres unmarked) [Compound 15, 3-[4-(4-Cyanonaphthalen-1-yl)isoquinolin-6-yl]butyric Acid], the IC50 was determined as 24 nM.

With `CC(CC(=O)O)c1ccc2cncc(-c3ccc(C#N)cc3)c2c1` (centres unmarked) [Compound 13, 3-[4-(4-Cyanophenyl)isoquinolin-6-yl]butyric Acid], the half-maximal inhibitory concentration (IC50) worked out at 189 nM.

As for `N#Cc1ccc(-c2cncc3cc(C(=O)O)sc23)c2ccccc12` [Compound 29, 7-(4-Cyanonaphthalen-1-yl)thieno[3,2-c]pyridin-2-formic Acid], the IC50 was 2860 nM.

Take `CC(C)(Cc1cc2cncc(-c3ccc(C#N)cc3)c2s1)C(=O)O` [Compound 33, 3-[7-(4-Cyanophenyl)thieno[3,2-c]pyridin-2-yl]-2,2-dimethylpropionic Acid]: the IC50 turned out to be 42 nM.

`CC(C)(Sc1ccc2nccn2c1-c1ccc(C#N)cc1)C(=O)O` [Compound 27, 2-{[5-(4-Cyanophenyl)imidazo[1,2-a]pyridin-6-yl]thio}-2-methyl propionic Acid]: the IC50 worked out at 1730 nM.

As to `N#Cc1ccc(-c2cncc3ccc(CCC(=O)O)cc23)cc1` [Compound 2, 3-[4-(4-Cyanophenyl)isoquinolin-6-yl]propionic Acid], the IC50 came to 161 nM.

As to `N#Cc1ccc(-c2cncc3cc(CCC(=O)O)sc23)c2ccccc12` [Compound 30, 3-[7-(4-Cyanonaphthalen-1-yl)thieno[3,2-c]pyridin-2-yl]propionic acid], the IC50 came out at 87 nM.

For `Cc1nc(Cc2c(Cl)cccc2Cl)n2cc(CCC(=O)O)ccc12` [Compound 25, 3-{3-[(2,6-dichlorophenyl)methyl]-1-methylimidazole[1,5-a]pyridine-6-yl}propionic Acid], the IC50 stood at 289 nM.

Take `CC(Sc1ccc2cncc(-c3ccc(C#N)c4ccccc34)c2c1)C(=O)O` (centres unmarked) [Compound 21, 2-{[4-(4-Cyanonaphthalen-1-yl)isoquinolin-6-yl]thio}propionic Acid]: the IC50 stood at 100 nM.

Turning to `CC(C)(Oc1ccc2cncc(-c3ccc(C#N)cc3)c2c1)C(=O)O` [Compound 6, 2{[4-(4-Cyanophenyl)isoquinolin-6-yl]oxy}-2-methylpropionic Acid], the IC50 was 214 nM.

Take `CC(C)(Cc1cc2cncc(-c3ccc(C#N)c4ccccc34)c2s1)C(=O)O` [Compound 34, 3-[7-(4-Cyanonaphthalen-1-yl)thieno[3,2-c]pyridin-2-yl]-2,2-dimethylpropionic Acid]: the IC50 was determined as 139 nM.

`CC(C)(Sc1ccc2cncc(-c3cccc4c(C#N)cccc34)c2c1)C(=O)O` [Compound 10, 2{[4-(5-Cyanonaphthalen-1-yl)isoquinolin-6-yl]thio}-2-methylpropionic Acid]: the IC50 came out at 19 nM.

As to `CC(O)(CC(=O)O)c1cc2c(-c3ccc(C#N)c4ccccc34)cncc2s1` (centres unmarked) [Compound 41, 3-[4-(4-Cyanonaphthalen-1-yl)thieno[2,3-c]pyridin-2-yl]-3-hydroxyl butyric Acid], the IC50 was found to be 934 nM.

With `CC(C)(C(=O)O)c1ccc2cncc(-c3ccc(C#N)c4ccccc34)c2c1` [Compound 49, 2-[4-(4-Cyanonaphthalen-1-yl)isoquinolin-6-yl]-2-methyl propionic acid], the IC50 amounted to 116 nM.

In the case of `N#Cc1ccc(-c2cncc3ccc(SC4(C(=O)O)CCC4)cc23)c2ccccc12` [Compound 24, 1-{[4-(4-cyanonaphthalen-1-yl)isoquinolin-6-yl]thio}cyclobutane-1-carboxylic Acid], the IC50 was 18 nM.

As to `CC(CC(=O)O)c1cc2c(-c3ccc(C#N)c4ccccc34)cncc2s1` (racemic) [Compound 42, 3-[4-(4-Cyanonaphthalen-1-yl)thieno[2,3-c]pyridin-2-yl] butyric Acid], the IC50 came out at 24 nM.

In the case of `CC(C)(Sc1ccc2cncc(-c3ccc(C#N)cc3)c2c1)C(=O)O` [Compound 4], the IC50 was 15 nM.

In the case of `Cc1nn(Cc2c(Cl)cccc2Cl)c2cc(SC(C)(C)C(=O)O)ccc12` [Compound 26, 2-({1-[(2,6-dichlorophenyl)methyl]-3-methyl-1H-indazol-6-yl}thio)-2-methyl propionic Acid], the IC50 came to 119 nM.

Consider `CC(C)(Cc1cc2c(Cc3c(Cl)cccc3Cl)cccc2s1)C(=O)O` [Compound 40, 3-{4-[(2,6-Dichlorophenyl)methyl]-1-benzothiophen-2-yl]-2,2-dimethyl propionic Acid], for which the IC50 was found to be 3470 nM.

Take `N#Cc1ccc(-c2cncc3cc(CC(=O)O)sc23)c2ccccc12` [Compound 31, 2-[7-(4-Cyanonaphthalen-1-yl)thieno[3,2-c]pyridin-2-yl]acetic Acid]: the half-inhibitory concentration (IC50) was 3420 nM.

Consider `N#Cc1ccc(-c2cncc3ccc(/C=C/C(=O)O)cc23)c2ccccc12` [Compound 14, (2E)-3-[4-(4-Cyanonaphthalen-1-yl)isoquinolin-6-yl]acrylic Acid], for which the IC50 came out at 385 nM.

Take `CC(C)(Sc1ccc2cncc(-c3ccc(C#N)cc3Cl)c2c1)C(=O)O` [Compound 23, 2-{[4-(2-Chloro-4-cyanophenyl)isoquinolin-6-yl]thio}-2-methyl propionic Acid]: the IC50 was found to be 18 nM.

`CC(C)(Sc1cc(F)c2cncc(-c3ccc(C#N)c4ccccc34)c2c1)C(=O)O` [Compound 9, 2{[4-(4-Cyanonaphthalen-1-yl)-8-fluoroisoquinolin-6-yl]thio}-2-methylpropionic Acid]: the IC50 is 127 nM.

Regarding `CC(CC(=O)O)c1cc2cncc(-c3ccc(C#N)c4ccccc34)c2s1` (racemic) [Compound 52, 3-[7-(4-Cyanonaphthalen-1-yl)thieno[3,2-c]pyridine-2-yl]-butyric Acid], the IC50 came out at 37 nM.

Turning to `CC(C)(Sc1ccc2cncc(-c3ccc(C#N)c(Cl)c3)c2c1)C(=O)O` [Compound 22, 2-{[4-(3-Chloro-4-cyanophenyl)isoquinolin-6-yl]thio}-2-methyl propionic Acid], the IC50 came to 55 nM.

Take `CC(C)(Cc1ccc2cncc(-c3ccc(C#N)cc3)c2c1)C(=O)O` [Compound 51, 3-[4-(4-Cyanophenyl)isoquinolin-6-yl]-2,2-dimethyl propionic Acid]: the IC50 was 19 nM.

In the case of `CC(C)(Cc1ccc2cncc(-c3ccc(C#N)c4ccccc34)c2c1)C(=O)O` [Compound 17, 3-[4-(4-Cyanonaphthalen-1-yl)isoquinolin-6-yl]-2,2-dimethyl propionic Acid], the IC50 came out at 12 nM.
